Legend:
[1] = tested on: intracellular beta-lactamase; experiment: nitrocefin hydrolysis by bacterial cell suspension on Phoenix panel; assay type: cell-based, E. coli; design: unit not given here; conditions: maximum hydrolysis rate within 10 hrs; for NCF activity: no lysis reagent
Description: (§1) Panel production. Stock solutions with nitrocefin, trehalose, and/or reagents used to lyse the bacterial cells in pH6 MES buffer were prepared and dispensed into wells on the bottom part of a Phoenix™ panel (BD, USA), with one stock solution in one well. Panels were then dried in an oven for approximately 30 min at approximately 70° C. The top part of Phoenix panel was then attached to the bottom part forming a panel system ready for inoculation. The concentrations of reagents after rehydration following Phoenix panel inoculation were 3 mg/ml lysozyme, 1 mM EDTA, and 1% trehalose in 0.1M pH6 MES buffer.
(§2) Inoculation and lysis testing. Representative strains of bacteria, such as E. coli and Klebsiella pneumoniae, were each streaked on a Trypticase™ Soy Agar with 5% Sheep Blood agar plate (BD, USA) and the plates were incubated at 35° C. for 18 hours. Afterwards, colonies from pure culture on each plate were inoculated into BD Phoenix ID broth and adjusted to a desired turbidity of approximately 0.5 MacFarland. The bacterial cell suspension was then poured into the ID side of the Phoenix panels that were specifically made for cell lysis testing. Once inoculated, the panel was loaded into Phoenix instrument, where nitrocefin hydrolysis rate was monitored by colorimetric signals changes every 20 minutes for 16 hours.
(§3) Microorganism. The presence of beta-lactamase in the strains tested herein was previously characterized by isoelectric focusing (IEF) gel electrophoresis, PCR testing, or MIC assays, which were performed by microbroth dilution method according to the CLSI (Clinical and Laboratory Standards Institute) standard.

[2] = tested on: intracellular beta-lactamase; experiment: as above; assay type: cell-based, Klebsiella pneumoniae; design: unit not given here; conditions: maximum hydrolysis rate within 10 hrs; for NCF activity: no lysis reagent
Description: as §1, §2, §3

[3] = Sample 1, E. coli, beta-lactamase +
[4] = Sample 2, E. coli, beta-lactamase +
[5] = Sample 3, E. coli, beta-lactamase +
[6] = Sample 4, E. coli, beta-lactamase +
[7] = Sample 5, E. coli, beta-lactamase +
[8] = Sample 6, E. coli, beta-lactamase +
[9] = Sample 7, E. coli, beta-lactamase +
[10] = Sample 8, E. coli, beta-lactamase −
[11] = Sample 9, Klebsiella pneumoniae, beta-lactamase +
[12] = Sample 10, Klebsiella pneumoniae, beta-lactamase +
[13] = Sample 11, Klebsiella pneumoniae, beta-lactamase +
[14] = Sample 12, Klebsiella pneumoniae, beta-lactamase +
[15] = Sample 13, Klebsiella pneumoniae, beta-lactamase +
[16] = Sample 14, Klebsiella pneumoniae, beta-lactamase +
[17] = Sample 15, Klebsiella pneumoniae, beta-lactamase +
[18] = Sample 16, Klebsiella pneumoniae, beta-lactamase −

O=C(Cc1cccs1)N[C@@H]1C(=O)N2C(C(=O)O)=C(/C=C/c3ccc([N+](=O)[O-])cc3[N+](=O)[O-])CS[C@H]12 [NCF, 3-[2,4-dinitrostyryl]-7-(2-thienylacetamido]3-cephem-4-carboxylic acid]
NCF activity [1, 3]: 1.9 | NCF activity with lysis reagent [1, 3]: 7.2 | NCF activity [1, 4]: 2.1 | NCF activity with lysis reagent [1, 4]: 7.7 | NCF activity [1, 5]: 2.3 | NCF activity with lysis reagent [1, 5]: 8.1 | NCF activity [1, 6]: 1.9 | NCF activity with lysis reagent [1, 6]: 6.8 | NCF activity [1, 7]: 8.2 | NCF activity with lysis reagent [1, 7]: 9.1 | NCF activity [1, 8]: 7.2 | NCF activity with lysis reagent [1, 8]: 8.1 | NCF activity [1, 9]: 6.8 | NCF activity with lysis reagent [1, 9]: 8.4 | NCF activity [1, 10]: 1.7 | NCF activity with lysis reagent [1, 10]: 1.8 | NCF activity [2, 11]: 1.3 | NCF activity with lysis reagent [2, 11]: 4.6 | NCF activity [2, 12]: 3.3 | NCF activity with lysis reagent [2, 12]: 6.3 | NCF activity [2, 13]: 3.9 | NCF activity with lysis reagent [2, 13]: 6.1 | NCF activity [2, 14]: 2.6 | NCF activity with lysis reagent [2, 14]: 5.6 | NCF activity [2, 15]: 6.7 | NCF activity with lysis reagent [2, 15]: 6.8 | NCF activity [2, 16]: 7.5 | NCF activity with lysis reagent [2, 16]: 8.8 | NCF activity [2, 17]: 9.1 | NCF activity with lysis reagent [2, 17]: 9.5 | NCF activity [2, 18]: 1.2 | NCF activity with lysis reagent [2, 18]: 1.8

From patent publication US9834807B2, “Compositions for the detection of intracellular bacterial targets and other intracellular micororganism targets” (Becton, Dickinson and Company, priority 2008, dated 2017)
